# “And” between values parts separate entries of the source, which are not always exact repeats. Equal values may be shown once. “Also recorded” adds a separate entry of the source.
# Assays:
# [1] = tested on: Male Sprague-Dawley rats; test: Sustained i.v. infusion of diuretics in conscious catheterised rats: dose response, combinations, renal clearance (Example 2); format: in vivo, rat; details: for Equidiuretic dose / dose at which the maximum diuretic effect was reached / Potassium excretion / diuretic effect (urine flow): sustained i.v. infusion; for dose at which the maximum diuretic effect was reached / Potassium excretion / diuretic effect (urine flow): dose response; for Potassium excretion / diuretic effect (urine flow): single agents
# Experimental: Male Sprague-Dawley rats were obtained from Charles River Labs (Wilmington, Del.). They were housed in a light-controlled room with a 12 h light/dark cycle and were allowed ad libitum access to food and water.
# Catheters were implanted in the abdominal aorta and vena cava via the left femoral artery and vein under a mixture of ketamine hydrochloride (50 mg/kg) and acepromazine (0.2 mg/kg, i.m.) anesthesia. An additional medical grade Tygon tubing was placed in the he stomach at the left extremity of the greater curvature. A silastic-covered stainless steel cannula was implanted in the bladder. Details of surgery, pre and post-surgical care and the experimental set-ups have been described in detail previously (87). Experiments were conducted 4-5 days following surgery, by which time the rats had fully recovered and were gaining weight. During the recovery, the rats were housed individually and were accustomed to a plastic retainer (model ECU, Braintree Scientific, Inc., Braintree, Mass.).
# Between 8:00-9:00 AM, rats were weighed and placed in the restrainer. The arterial line was connected to a Gilson polygraph via a Gould pressure transducer for the recording of blood pressure (MAP) and heart rate (HR); the venous line to infusion pumps for the infusion of vehicle and test agents; and the stomach tube to a 10 or 20 cc syringe to allow for the replacement of excess urinary loss. The bladder cannula was extended with a short length of PE tubing to permit collection of urine into preweighed tubes.
# To replace normal fluid and electrolytes loss, heparinized (50 U/ml) ringer's solution was infused throughout the experiment via the arterial line and 5% dextrose during the equilibration and control period via the venous line, each at 10 μl/min. When excess fluid loss reached 2 ml, it was replaced via the gastric tube with room temperature Ringer's solution. A period of 45-60 min was allowed for equilibration in all studies, at the end of which a 0.5 ml blood sample was taken for measurement of hematocrit, plasma electrolytes and creatinine. This was followed by the various experimental procedures described below.
# Group 1. Sustained I.V. infusion of diuretic agents. Urine was collected in 5 min periods throughout the experimental period. After equilibration, 3 collections were made to establish baseline. thirty min urine collections were made before and during infusion of test agent. […] At the end of experiments, the rats were weighed again and returned to their home cages.
# Group 2. Sustained i.v. infusion of combinations diuretics. […] After the termination of infusion, urine flow was allowed to return to baseline, approximately 15-20 min. The rats were then weighed and returned to their home cages.
# Group 3. […] (10%) and PAH (2%) were infused i.v. at 20 μl/min from the start. IN order to establish baseline values, two 20 min urine collections were performed following equilibration. One blood sample (500 μl) was taken in the middle of the second collection.
# Urinary and plasma concentrations of […] and PAH were determined by spectrophotometry, electrolyte concentrations were measured using the Synchron ASB Clinical System (Beckman Instr. Inc., Brea, Calif.) and osmolality by an automatic osmometer (Model 2430, Precision Systems, Inc., Natick, Mass.). Renal clearance values were calculated using standard clearance formulae and expressed per 100 g body weight.
# All values represent maximal changes, expressed as absolute values, and are reported throughout as group means+−SEM. Data from the does-response studies (groups 1-5) were analyzed using an analysis of variance for repeated measures, post-hoc comparisons were made with the Schette f-test. Analysis of variance (ANOVA) was used to analyze differences between the effects of various diuretics and their combinations (group 6) and the renal clearance data (group 7). A value of P<0.05 was considered statistically significant.
# [2] = tested on: Male Sprague-Dawley rats; test: Renal function of anesthetized rats after 0-3 days of furosemide, before and after BG9719 IV (Example 7); format: in vivo, rat
# Experimental: Twenty four hours after their last dose, they were anesthetized and instrumented to measure renal function and hemodynamics.
# We collected a 30 minute baseline urine and determined basal sodium excretion in these rats.
# Twenty-four hours after the last dose was administered, the rats were anesthetized and instrumented to measure renal function. […] Urine was collected via an implanted bladder catheter.
# [3] = Micropuncture studies; format: in vivo; details: following administration of BG9719
# [4] = tested on: Male Sprague-Dawley rats; test: Natriuretic response to oral dosing in rats in metabolic cages (Examples 3, 5, 6); format: in vivo, rat; details: once-daily gavage, Days 1-5, furosemide 100 mg/kg or BG9719 1 mg/kg; urine 4 hours after dosing
# Experimental: Urines were collected for 4 hours post dosing and the natriuretic response was determined. The data are expressed as uEq/hr.
# FIG. 8: In the same rats from FIG. 7, we collected urine for 4 hours after dosing.
# Twenty four male Sprague-Dawley rats were placed in metabolic cages to collect urines in order to assess the natriuretic response to orally administered compounds. […] Urines were collected for 4 hours after dosing. Urine volume was determined gravimetrically and urinary sodium concentration was determined by flame photometry.
# The rats shown in Example 4 were placed in metabolic cages on Days 1 through 5 of dosing and urine was collected for 4 hours after dosing. Urine volume was determined gravimetrically and urinary sodium concentration was determined by flame photometry.
# They were placed in metabolic cages and urines were collected for four hours after dosing. Urine volume was determined gravimetrically and urinary sodium concentration was determined by flame photometry.
# [5] = biological target: T1, adenosine A1 receptor (Homo sapiens, UniProt P30542); test: IC50 for the adenosine A1 receptor; format: binding
# T1 sequence (P30542 1-326): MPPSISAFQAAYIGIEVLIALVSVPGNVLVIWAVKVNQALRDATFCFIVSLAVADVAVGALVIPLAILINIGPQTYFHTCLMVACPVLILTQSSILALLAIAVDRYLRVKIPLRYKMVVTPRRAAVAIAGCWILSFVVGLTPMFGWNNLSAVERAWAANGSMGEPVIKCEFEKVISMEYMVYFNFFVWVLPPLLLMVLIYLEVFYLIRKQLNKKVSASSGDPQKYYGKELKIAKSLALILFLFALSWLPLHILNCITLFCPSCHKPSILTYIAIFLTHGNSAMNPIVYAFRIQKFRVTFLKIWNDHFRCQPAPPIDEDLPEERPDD
# [6] = tested on: patients with NYHA Class II or III CHF; test: Renal function in CHF patients after single intravenous dose (Example 1); details: 0-2 hours, mean, single i.v. dose
# [7] = biological target: T1, adenosine A1 receptor; details: other adenosine A1 receptor antagonists; cited from earlier work
# [8] = renal clearance study, FUR 10 μg/kg/min i.v. for 90 min
Compound,Equidiuretic dose [1] [µg/kg/min],dose at which the maximum diuretic effect was reached [1] [µg/kg/min],Potassium excretion [1],diuretic effect (urine flow) [1],GFR after dosing in Day 3 furosemide rats ([2]; BG9719 0.1 mg/kg IV after 3 days furosemide),"urinary sodium excretion (UNaV) after dosing ([2]; BG9719 0.1 mg/kg IV, control rats and 3 Day Furo rats)","GFR after dosing versus baseline ([2]; BG9719 0.1 mg/kg IV, rats with 0-3 days furosemide)","increase in GFR ([1]; renal clearance study, 1 μg/kg/min i.v. for 90 min, not statistically significant) [%]","absolute and fractional excretions of sodium ([1]; renal clearance study, BG9719 1 or FUR 10 μg/kg/min i.v. for 90 min)","total urine output ([1]; representative animal of FIG. 1, i.v. infusion 0.3-10 μg/kg/min) [mL]",tubular flow rates [3],natriuretic response on repeated dosing [4],IC50 [5] [nM],basal GFR ([2]; after 1 day of furosemide 100 mg/kg orally),"GFR [1, 8]","RBF [1, 8]",Urine volume [6],A1 vs. A2 selectivity [7] [fold]
"NS(=O)(=O)c1cc2c(cc1Cl)NCNS2(=O)=O [HCTZ, hydrochlorothiazide]",30,20,significantly increased,only minor effects,–,–,–,–,–,–,–,–,–,–,–,–,–,–
"CCCn1c(=O)c2nc(C3CC4CC3C3OC43)[nH]c2n(CCC)c1=O [BG9719, 1,3-dipropyl-8-[5,6-exo-epoxy)-2(S) norbornyl] xanthine]",1,3,not,does-dependent increase in urine flow,recover to a level not different than normal rats,reaches maximum within the first fifteen minutes,increases in all groups,13,increased,23.8,increased flow rates in both the proximal and distal tubules,maintained across multiple dosing days,1.15,–,–,–,–,–
NS(=O)(=O)c1cc(C(=O)O)c(NCc2ccco2)cc1Cl [furosemide],10,100,–,twice as a potent diuretic as BG9719,–,–,–,–,–,–,–,diminishes on repeated dosing,–,relatively normal; also recorded: fairly normal,significantly lowered,significantly lowered,increased and 1081 mL,–
CCCn1c(=O)c2[nH]c(C34CC5CC(CC3C5)C4)nc2n(CCC)c1=O [KW 3902],–,–,–,–,–,–,–,–,–,–,–,–,–,–,–,–,–,150
